From ChEMBL document CHEMBL1201862, “PubChem BioAssay data set” (2004)
The source made the active and inactive calls.

What was measured:
[1] = target: Glucose-6-phosphate 1-dehydrogenase (Homo sapiens, UniProt P11413); test: human G6PD enzyme inhibitors, dose response, selectivity assay for P. falciparum G6PD inhibitor project, biochemical, fluorescence (AID 504792); format: functional
[2] = target: Induced myeloid leukemia cell differentiation protein Mcl-1 (Homo sapiens, UniProt Q07820); format: functional
[3] = target: T1, Protein RecA (Mycobacterium tuberculosis, UniProt P9WHJ3); test: Fluorescence Cell-Free Homogeneous Dose Retest to Identify Inhibitors of RecA-Intein Splicing Activity. [Related pubchem assays (depositor defined):AID2097, AID2223, AID489010, AID492950]; format: functional
T1 sequence (P9WHJ3 whole entry): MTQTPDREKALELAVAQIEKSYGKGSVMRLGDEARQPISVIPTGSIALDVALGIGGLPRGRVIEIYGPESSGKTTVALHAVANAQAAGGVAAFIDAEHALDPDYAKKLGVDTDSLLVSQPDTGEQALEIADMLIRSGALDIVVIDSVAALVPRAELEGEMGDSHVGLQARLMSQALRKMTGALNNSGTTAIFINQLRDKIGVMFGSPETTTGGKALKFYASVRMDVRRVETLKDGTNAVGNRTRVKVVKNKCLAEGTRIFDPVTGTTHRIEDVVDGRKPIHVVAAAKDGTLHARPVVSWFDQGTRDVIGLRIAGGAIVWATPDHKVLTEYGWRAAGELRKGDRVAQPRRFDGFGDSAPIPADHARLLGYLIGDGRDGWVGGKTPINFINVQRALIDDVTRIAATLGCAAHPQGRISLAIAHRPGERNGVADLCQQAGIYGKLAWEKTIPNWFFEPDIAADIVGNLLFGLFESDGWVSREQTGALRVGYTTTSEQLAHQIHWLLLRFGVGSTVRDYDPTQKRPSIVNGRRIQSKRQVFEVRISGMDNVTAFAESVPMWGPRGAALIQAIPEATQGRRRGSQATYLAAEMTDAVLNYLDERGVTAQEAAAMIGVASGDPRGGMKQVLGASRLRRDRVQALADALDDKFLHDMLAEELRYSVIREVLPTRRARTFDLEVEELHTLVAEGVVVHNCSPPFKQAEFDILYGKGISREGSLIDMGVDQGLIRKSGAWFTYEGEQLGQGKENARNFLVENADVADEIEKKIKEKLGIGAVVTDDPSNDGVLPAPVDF

[4] = target: T2, Mannose-6-phosphate isomerase (Homo sapiens, UniProt P34949); test: human PMI inhibitors, high substrate, primary screen, biochemical, fluorescence intensity, high mannose 6-phosphate (AID 1220)
T2 sequence (P34949 whole entry): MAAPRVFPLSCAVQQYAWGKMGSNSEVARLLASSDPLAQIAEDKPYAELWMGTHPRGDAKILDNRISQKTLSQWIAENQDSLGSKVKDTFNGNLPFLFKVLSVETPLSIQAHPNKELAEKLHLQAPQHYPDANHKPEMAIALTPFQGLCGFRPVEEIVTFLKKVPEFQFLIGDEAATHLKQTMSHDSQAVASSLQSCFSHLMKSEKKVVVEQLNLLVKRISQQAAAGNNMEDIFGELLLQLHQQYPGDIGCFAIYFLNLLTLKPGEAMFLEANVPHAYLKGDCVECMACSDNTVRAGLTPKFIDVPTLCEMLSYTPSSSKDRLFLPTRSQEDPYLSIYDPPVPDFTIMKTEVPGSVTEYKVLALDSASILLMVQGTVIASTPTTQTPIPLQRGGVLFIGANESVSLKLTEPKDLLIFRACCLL

[5] = target: Genome polyprotein (dengue virus type 2, UniProt P29990); test: Dengue-2 NS5 methyltransferase inhibitors, primary screen, biochemical, confirmation dose response (AID 588689); format: functional
[6] = target: T3, ORF 73 (Human herpesvirus 8, UniProt O40947); test: inhibitors of C-LANA binding to LBS DNA, dose response, biochemical, fluorescence polarization, cherry-picked samples (AID 504725); set-up: species or system Human gammaherpesvirus 8;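 note: fluorescence polarization of a labeled DNA duplex reporting LANA DNA binding; potency is for inhibitors that block LANA binding to the DNA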
T3 sequence (O40947 whole entry): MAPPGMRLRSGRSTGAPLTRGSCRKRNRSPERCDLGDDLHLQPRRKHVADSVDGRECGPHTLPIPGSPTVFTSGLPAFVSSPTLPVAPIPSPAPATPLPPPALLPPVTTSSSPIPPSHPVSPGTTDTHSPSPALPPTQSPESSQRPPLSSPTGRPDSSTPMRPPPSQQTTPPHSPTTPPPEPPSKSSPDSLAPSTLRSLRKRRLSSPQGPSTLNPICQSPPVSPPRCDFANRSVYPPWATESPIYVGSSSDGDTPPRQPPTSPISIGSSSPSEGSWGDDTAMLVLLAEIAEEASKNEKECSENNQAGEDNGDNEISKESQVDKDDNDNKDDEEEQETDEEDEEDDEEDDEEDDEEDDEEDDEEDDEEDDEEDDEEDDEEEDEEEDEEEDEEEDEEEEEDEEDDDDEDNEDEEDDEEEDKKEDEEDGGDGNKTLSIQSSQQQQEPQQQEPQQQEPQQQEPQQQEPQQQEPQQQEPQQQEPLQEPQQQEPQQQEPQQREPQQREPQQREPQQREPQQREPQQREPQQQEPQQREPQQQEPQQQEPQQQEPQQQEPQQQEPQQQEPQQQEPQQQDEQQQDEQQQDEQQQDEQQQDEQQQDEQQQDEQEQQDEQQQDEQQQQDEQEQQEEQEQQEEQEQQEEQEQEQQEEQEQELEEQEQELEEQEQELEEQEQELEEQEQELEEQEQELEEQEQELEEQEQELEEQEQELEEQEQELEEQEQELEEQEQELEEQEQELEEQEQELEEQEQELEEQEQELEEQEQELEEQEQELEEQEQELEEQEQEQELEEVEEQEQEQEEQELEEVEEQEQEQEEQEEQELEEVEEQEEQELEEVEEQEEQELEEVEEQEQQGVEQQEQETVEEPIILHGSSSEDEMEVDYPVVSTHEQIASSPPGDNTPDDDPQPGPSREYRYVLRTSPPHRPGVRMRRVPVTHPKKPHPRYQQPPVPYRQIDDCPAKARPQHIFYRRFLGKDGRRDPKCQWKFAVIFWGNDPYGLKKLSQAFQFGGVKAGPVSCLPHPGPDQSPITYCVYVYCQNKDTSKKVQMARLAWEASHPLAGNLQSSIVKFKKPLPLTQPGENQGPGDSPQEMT

[7] = target: Intestinal-type alkaline phosphatase (Homo sapiens, UniProt P09923); test: inhibition of human intestinal alkaline phosphatase – biochemical, dose response (AID 488876); format: functional
[8] = target: Procathepsin L (Homo sapiens, UniProt P07711)
[9] = target: T4, Protein Tat (Human immunodeficiency virus type 1 group M subtype B (isolate HXB2)(HIV-1), UniProt P04608); format: functional;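 note: tat binding to TAR RNA read out by fluorescence polarization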
T4 sequence (P04608 whole entry): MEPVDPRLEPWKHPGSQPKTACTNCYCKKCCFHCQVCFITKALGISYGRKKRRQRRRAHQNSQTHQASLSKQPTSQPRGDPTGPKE

[10] = C. albicans growth with fluconazole, confirmation, fluorescence, retest (AID 2467); format: functional, cell-based
[11] = A549 cell cytotoxicity, dose response, cytotoxicity control, plate reader, cherry-pick, antagonist series (AID 743412); format: functional, cell-based

Chain of Genome polyprotein (P29990 2492-3391 limits assumed): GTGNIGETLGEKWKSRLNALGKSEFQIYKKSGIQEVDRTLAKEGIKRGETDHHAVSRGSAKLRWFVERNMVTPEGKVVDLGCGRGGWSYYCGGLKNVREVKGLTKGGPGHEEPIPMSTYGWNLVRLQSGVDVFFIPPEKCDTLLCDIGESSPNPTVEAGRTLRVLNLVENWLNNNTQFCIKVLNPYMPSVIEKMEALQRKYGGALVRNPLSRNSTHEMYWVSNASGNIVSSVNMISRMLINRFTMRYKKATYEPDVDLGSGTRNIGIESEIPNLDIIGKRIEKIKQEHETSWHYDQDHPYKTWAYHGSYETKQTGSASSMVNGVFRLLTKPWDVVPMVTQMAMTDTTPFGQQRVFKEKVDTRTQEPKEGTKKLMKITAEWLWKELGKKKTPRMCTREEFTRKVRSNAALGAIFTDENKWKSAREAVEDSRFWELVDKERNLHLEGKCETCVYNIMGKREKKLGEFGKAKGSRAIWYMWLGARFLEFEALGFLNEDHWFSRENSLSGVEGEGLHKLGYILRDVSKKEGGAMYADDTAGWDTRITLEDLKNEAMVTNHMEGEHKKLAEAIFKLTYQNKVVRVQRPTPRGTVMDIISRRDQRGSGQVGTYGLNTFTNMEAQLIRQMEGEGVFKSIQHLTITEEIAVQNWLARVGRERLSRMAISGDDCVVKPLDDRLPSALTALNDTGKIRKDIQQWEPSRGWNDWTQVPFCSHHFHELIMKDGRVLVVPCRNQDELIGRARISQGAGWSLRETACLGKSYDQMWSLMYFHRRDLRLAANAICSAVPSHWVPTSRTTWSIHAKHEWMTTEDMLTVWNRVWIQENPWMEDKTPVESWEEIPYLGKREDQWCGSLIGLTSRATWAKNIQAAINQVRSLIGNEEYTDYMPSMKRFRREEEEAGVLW
Chain of Induced myeloid leukemia cell differentiation protein Mcl-1 (Q07820 whole entry): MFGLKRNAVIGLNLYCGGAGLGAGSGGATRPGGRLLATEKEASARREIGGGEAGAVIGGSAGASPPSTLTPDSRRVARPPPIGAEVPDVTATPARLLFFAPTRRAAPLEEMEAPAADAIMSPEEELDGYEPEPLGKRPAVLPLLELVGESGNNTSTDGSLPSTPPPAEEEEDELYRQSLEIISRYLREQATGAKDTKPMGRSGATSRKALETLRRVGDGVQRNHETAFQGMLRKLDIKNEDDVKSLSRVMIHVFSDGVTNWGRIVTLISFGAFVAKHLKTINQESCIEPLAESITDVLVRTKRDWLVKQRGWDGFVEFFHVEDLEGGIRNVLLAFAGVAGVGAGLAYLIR
Chain of Intestinal-type alkaline phosphatase (P09923 whole entry): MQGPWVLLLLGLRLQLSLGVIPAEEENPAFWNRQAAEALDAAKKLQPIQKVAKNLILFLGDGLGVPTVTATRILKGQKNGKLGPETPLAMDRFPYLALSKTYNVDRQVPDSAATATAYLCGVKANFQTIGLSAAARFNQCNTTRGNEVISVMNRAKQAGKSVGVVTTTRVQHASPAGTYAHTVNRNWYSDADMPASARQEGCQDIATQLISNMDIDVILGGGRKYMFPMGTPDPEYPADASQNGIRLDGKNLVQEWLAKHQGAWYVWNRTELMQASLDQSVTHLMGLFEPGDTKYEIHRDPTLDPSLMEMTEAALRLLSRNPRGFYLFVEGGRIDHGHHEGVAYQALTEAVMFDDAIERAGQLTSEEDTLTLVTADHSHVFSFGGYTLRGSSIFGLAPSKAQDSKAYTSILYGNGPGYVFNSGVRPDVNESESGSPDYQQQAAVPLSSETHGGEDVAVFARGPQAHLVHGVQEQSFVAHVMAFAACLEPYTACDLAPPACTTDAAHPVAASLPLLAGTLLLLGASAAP
Chain of Glucose-6-phosphate 1-dehydrogenase (P11413 whole entry): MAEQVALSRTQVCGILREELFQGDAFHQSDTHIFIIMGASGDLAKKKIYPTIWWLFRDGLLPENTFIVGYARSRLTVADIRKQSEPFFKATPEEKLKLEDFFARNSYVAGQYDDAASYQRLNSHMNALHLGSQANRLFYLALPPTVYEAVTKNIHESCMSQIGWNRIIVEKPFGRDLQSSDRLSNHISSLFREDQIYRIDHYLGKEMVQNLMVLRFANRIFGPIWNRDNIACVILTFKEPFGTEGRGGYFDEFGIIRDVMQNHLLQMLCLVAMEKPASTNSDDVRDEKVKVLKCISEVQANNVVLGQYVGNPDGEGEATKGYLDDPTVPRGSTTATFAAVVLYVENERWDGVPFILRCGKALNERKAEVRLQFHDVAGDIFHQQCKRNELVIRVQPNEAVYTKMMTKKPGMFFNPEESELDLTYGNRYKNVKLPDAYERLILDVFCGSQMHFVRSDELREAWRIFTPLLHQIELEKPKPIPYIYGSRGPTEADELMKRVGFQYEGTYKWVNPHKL
Chain of Procathepsin L (P07711 whole entry): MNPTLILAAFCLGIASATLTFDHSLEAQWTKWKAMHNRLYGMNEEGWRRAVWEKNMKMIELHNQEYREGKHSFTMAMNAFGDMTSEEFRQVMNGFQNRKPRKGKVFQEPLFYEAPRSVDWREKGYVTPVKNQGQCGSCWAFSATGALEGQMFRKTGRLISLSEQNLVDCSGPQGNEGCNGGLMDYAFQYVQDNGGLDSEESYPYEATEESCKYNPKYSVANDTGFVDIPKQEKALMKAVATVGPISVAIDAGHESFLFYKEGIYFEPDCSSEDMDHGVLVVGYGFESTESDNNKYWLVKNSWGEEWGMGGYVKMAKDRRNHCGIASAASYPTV

| Structure (SMILES) | IC50 [2] | EC50 [3] | IC50 [4] | IC50 [5] | further results |
| --- | --- | --- | --- | --- | --- |
| Cc1cc(C)c(S(=O)(=O)Nc2cc(SCC(=O)O)c(O)c3ccccc23)cc1C | 10.5 µM (active) | 0.277 µM (active) | – | – | IC50 [1]: 8.73 µM (active) |
| O=C(O)c1cc(N2N=C(C(F)(F)F)/C(=C/C=C/c3ccco3)C2=O)ccc1Cl | 4.69 µM (active) | – | > 50 µM (not active) | 24.2 µM (active) | AC50 [6]: 2.28 µM (active) |
| O=C(/C=C/c1ccco1)NC(=S)Nc1cccc(C(=O)O)c1 | – | – | – | – | IC50 [7]: > 100 µM (inactive) |
| CNCc1ccccc1Sc1ccc(O)c(O)c1 | – | 2.57 µM (active) | 25.9 µM (active) | 21.2 µM (active) | IC50 [8]: > 59.6 µM (not active); IC50 [9]: > 100 µM (active); EC50 [10]: > 38 µM (not active); AC50 [11]: > 52 µM (inactive) |
